Measurements: patent publication US20200306210A1 (ZOGENIX INTERNATIONAL LIMITED, priority 2017, published 2020)
Counter-ions that a name gives are not always drawn.

Legend:
[1] = system: children and young adults with Dravet syndrome; assay: Study 1: Behavior Rating Inventory of Executive Function (BRIEF); format: in vivo, Human; conditions: for BRIEF Global Executive Composite, change from baseline, mean: raw scores, negative = improvement
Source text: In the BRIEF test, the parent/caregiver and/or the patient (e.g., child or adolescent self-reporting) responds to a series of statements or questions in the form of questionnaires, where an answer of “N”=Never a problem, “S”=Sometimes a problem, and “O”=Often a problem are used to indicate that the behavior being described or assessed has occurred in the past 6 months.
Each questionnaire of the BRIEF parent- and teacher-rating form contains 86 items in eight non-overlapping clinical scales and two validity scales. Based on theoretical and empirical analyses (reviewed in chapter 5 of Gioia, Ibid.), the clinical scales combine to form two indexes: a) Behavioral Regulation (three scales) and b) Metacognition (five scales), as well as a Global Executive Composite (GEC), which is a summary score that takes into account all eight clinical scales of the BRIEF and represents the child's overall executive function. There are also two validity scales to measure Negativity and Inconsistency of responses. Scores on the Negativity scale measures the extent to which the respondent answered selected items in an unusually negative manner whereas scores on the Inconsistency scale indicate the extent to which the respondent answered similar items in an inconsistent manner.
The BRIEF (BRIEF-A or BRIEF-P) were administered at the time of patient randomization (on visit 3, which was one day before (study day “−1”) treatment began (study day 1)); the BRIEF was administered again during visit 8 (study day 43), and at the end of the study (visit 12, study day 99) to assess cognitive function.
The incidence of treatment-emergent adverse events (TEAEs) was monitored continuously during the study. TEAEs were graded by the investigator as mild, moderate, or severe, and related or not related to study medication. Vital signs, height, weight, and clinical laboratory evaluations were performed at each study visit. The Behavior Rating Inventory of Executive Function (BRIEF) was administered at baseline and periodically during the treatment period to assess for any effects of treatment on cognitive function. Doppler echocardiography (ECHOs) and 12-lead electrocardiography (ECGs) were performed during the screening/baseline period, after 6 weeks of treatment, and after 14 weeks of treatment at the end of the maintenance period. The ECGs and ECHOs were evaluated by two independent cardiologists who were blind to treatment randomization. In the event of disagreement, a third cardiologist arbitrated the decision.

[2] = system: subjects with Dravet syndrome; assay: Study 1503: open-label long-term extension, CGI-I at baseline and final visit; format: in vivo, Human
Description: Study 1503 was an open-label, long-term safety study of ZX008 in subjects with Dravet syndrome who successfully completed 14 weeks of treatment in 1501, 1502, or 1504 Cohorts 1 and 2. […] CGI-S(baseline scores) were determined at entry into 1503 (i.e., after completing a blinded 16 week trial) and then again at each patient's final visit. FIGS. 7 and 8, and Tables 3 and 4 present numbers of patients having each of the 7 ratings and statistical calculations of improvements.
The CGI scale measures the change in the subject's clinical status from a specific point in time, i.e., the Baseline Period (and also referred to as the CGI-S, an initial ranking of severity). The CGI rating scale permits a global evaluation of the subject's improvement over time.

`CCNC(C)Cc1cccc(C(F)(F)F)c1` (stereo not drawn) [ZX008, fenfluramine hydrochloride] was tested, and the “BRIEF BRI, improvement compared to baseline as compared to placebo” value ([1]; 0.2 mg/kg/day, P<0.05) was “significant improvement”, the “BRIEF Global Executive Composite, change from baseline, mean” value ([1]; 0.2 mg/kg/day) was −4.4 ± 22.3 and the “BRIEF BRI, improvement compared to baseline as compared to placebo” value ([1]; 0.8 mg/kg/day, P<0.05) was “statistically significant improvement”. For the same molecule, the “BRIEF GEC, improvement compared to baseline as compared to placebo” value ([1]; 0.8 mg/kg/day, P<0.05) was “statistically significant improvement”, the “BRIEF Global Executive Composite, change from baseline, mean” value ([1]; 0.8 mg/kg/day) was −11.0 ± 29.1 and the “BRIEF-P, difference from placebo” value ([1]; 0.2 and 0.8 mg/kg/day, hydrochloride) was “No changes”. The “CGI-I investigator, 1 = Very much improved, % of subjects” value ([2]; OLE Baseline) was “(15.8) %”, the “CGI-I investigator, 1 = Very much improved, N of subjects” value ([2]; OLE Baseline) was 35 and the “CGI-I investigator, 2 = Much improved, % of subjects” value ([2]; OLE Baseline) was “(24.4) %”. For the same molecule, the “CGI-I investigator, 2 = Much improved, N of subjects” value ([2]; OLE Baseline) was 54, the “CGI-I investigator, 3 = Minimally improved, % of subjects” value ([2]; OLE Baseline) was “(20.8) %” and the “CGI-I investigator, 3 = Minimally improved, N of subjects” value ([2]; OLE Baseline) was 46. The “CGI-I investigator, 4 = No change, % of subjects” value ([2]; OLE Baseline) was “(32.6) %”, the “CGI-I investigator, 4 = No change, N of subjects” value ([2]; OLE Baseline) was 72 and the “CGI-I investigator, 5 = Minimally worse, % of subjects” value ([2]; OLE Baseline) was “(5.0) %”. The “CGI-I investigator, 5 = Minimally worse, N of subjects” value ([2]; OLE Baseline) was 11, the “CGI-I investigator, 6 = Much worse, % of subjects” value ([2]; OLE Baseline) was “(1.4) %” and the “CGI-I investigator, 6 = Much worse, N of subjects” value ([2]; OLE Baseline) was 3. The “CGI-I investigator, 7 = Very much worse, % of subjects” value ([2]; OLE Baseline) was “(0.0) %”, the “CGI-I investigator, 7 = Very much worse, N of subjects” value ([2]; OLE Baseline) was 0 and the “CGI-I investigator, Improved (1, 2, 3), %” value ([2]; OLE Baseline) was “(61.1) %”. For the same molecule, the “CGI-I investigator, Much/very much improved (1, 2), %” value ([2]; OLE Baseline) was “(40.3) %”, the “CGI-I parent/caregiver, 1 = Very much improved, % of subjects” value ([2]; OLE Baseline) was “(16.4) %” and the “CGI-I parent/caregiver, 1 = Very much improved, number of subjects” value ([2]; OLE Baseline) was 37. The “CGI-I parent/caregiver, 2 = Much improved, % of subjects” value ([2]; OLE Baseline) was “(21.8) %”, the “CGI-I parent/caregiver, 2 = Much improved, number of subjects” value ([2]; OLE Baseline) was 49 and the “CGI-I parent/caregiver, 3 = Minimally improved, % of subjects” value ([2]; OLE Baseline) was “(19.1) %”. For the same molecule, the “CGI-I parent/caregiver, 3 = Minimally improved, number of subjects” value ([2]; OLE Baseline) was 43, the “CGI-I parent/caregiver, 4 = No change, % of subjects” value ([2]; OLE Baseline) was “(26.7) %” and the “CGI-I parent/caregiver, 4 = No change, number of subjects” value ([2]; OLE Baseline) was 60. The “CGI-I parent/caregiver, 5 = Minimally worse, % of subjects” value ([2]; OLE Baseline) was “(10.7) %”, the “CGI-I parent/caregiver, 5 = Minimally worse, number of subjects” value ([2]; OLE Baseline) was 24 and the “CGI-I parent/caregiver, 6 = Much worse, % of subjects” value ([2]; OLE Baseline) was “(4.0) %”. For the same molecule, the “CGI-I parent/caregiver, 6 = Much worse, number of subjects” value ([2]; OLE Baseline) was 9, the “CGI-I parent/caregiver, 7 = Very much worse, % of subjects” value ([2]; OLE Baseline) was “(1.3) %” and the “CGI-I parent/caregiver, 7 = Very much worse, number of subjects” value ([2]; OLE Baseline) was 3. For the same molecule, the “CGI-I parent/caregiver, Improved (1, 2, 3), %” value ([2]; OLE Baseline) was “(57.3) %”, the “CGI-I parent/caregiver, Much/very much improved (1, 2), %” value ([2]; OLE Baseline) was “(38.2) %” and the “CGI-I investigator rating, Median” value ([2]; OLE Baseline, N 221, 7-point scale) was 3.0. The “CGI-I investigator rating, Mean” value ([2]; OLE Baseline, N 221, scale 1 very much improved to 7 very much worse) was 2.9, the “CGI-I parent/caregiver rating, Median” value ([2]; OLE Baseline, N 225, 7-point scale) was 3.0 and the “CGI-I parent/caregiver rating, Mean” value ([2]; OLE Baseline, N 225, scale 1 very much improved to 7 very much worse) was 3.1. For the same molecule, the “CGI-I investigator, 1 = Very much improved, % of subjects” value ([2]; OLE Final Visit) was “(27.6) %”, the “CGI-I investigator, 1 = Very much improved, N of subjects” value ([2]; OLE Final Visit) was 70 and the “CGI-I investigator, 2 = Much improved, % of subjects” value ([2]; OLE Final Visit) was “(36.6) %”. For the same molecule, the “CGI-I investigator, 2 = Much improved, N of subjects” value ([2]; OLE Final Visit) was 93, the “CGI-I investigator, 3 = Minimally improved, % of subjects” value ([2]; OLE Final Visit) was “(21.3) %” and the “CGI-I investigator, 3 = Minimally improved, N of subjects” value ([2]; OLE Final Visit) was 54. The “CGI-I investigator, 4 = No change, % of subjects” value ([2]; OLE Final Visit) was “(7.9) %”, the “CGI-I investigator, 4 = No change, N of subjects” value ([2]; OLE Final Visit) was 20 and the “CGI-I investigator, 5 = Minimally worse, % of subjects” value ([2]; OLE Final Visit) was “(5.5) %”. The “CGI-I investigator, 5 = Minimally worse, N of subjects” value ([2]; OLE Final Visit) was 14, the “CGI-I investigator, 6 = Much worse, % of subjects” value ([2]; OLE Final Visit) was “(1.2) %” and the “CGI-I investigator, 6 = Much worse, N of subjects” value ([2]; OLE Final Visit) was 3. The “CGI-I investigator, 7 = Very much worse, % of subjects” value ([2]; OLE Final Visit) was “(0.0) %”, the “CGI-I investigator, 7 = Very much worse, N of subjects” value ([2]; OLE Final Visit) was 0 and the “CGI-I investigator, Improved (1, 2, 3), %” value ([2]; OLE Final Visit) was “(85.4) %”. For the same molecule, the “CGI-I investigator, Much/very much improved (1, 2), %” value ([2]; OLE Final Visit) was “(64.2) %”, the “CGI-I parent/caregiver, 1 = Very much improved, % of subjects” value ([2]; OLE Final Visit) was “(27.0) %” and the “CGI-I parent/caregiver, 1 = Very much improved, number of subjects” value ([2]; OLE Final Visit) was 67. The “CGI-I parent/caregiver, 2 = Much improved, % of subjects” value ([2]; OLE Final Visit) was “(35.5) %”, the “CGI-I parent/caregiver, 2 = Much improved, number of subjects” value ([2]; OLE Final Visit) was 88 and the “CGI-I parent/caregiver, 3 = Minimally improved, % of subjects” value ([2]; OLE Final Visit) was “(19.8) %”. The “CGI-I parent/caregiver, 3 = Minimally improved, number of subjects” value ([2]; OLE Final Visit) was 49, the “CGI-I parent/caregiver, 4 = No change, % of subjects” value ([2]; OLE Final Visit) was “(7.7) %” and the “CGI-I parent/caregiver, 4 = No change, number of subjects” value ([2]; OLE Final Visit) was 19. For the same molecule, the “CGI-I parent/caregiver, 5 = Minimally worse, % of subjects” value ([2]; OLE Final Visit) was “(5.2) %”, the “CGI-I parent/caregiver, 5 = Minimally worse, number of subjects” value ([2]; OLE Final Visit) was 13 and the “CGI-I parent/caregiver, 6 = Much worse, % of subjects” value ([2]; OLE Final Visit) was “(4.0) %”. For the same molecule, the “CGI-I parent/caregiver, 6 = Much worse, number of subjects” value ([2]; OLE Final Visit) was 10, the “CGI-I parent/caregiver, 7 = Very much worse, % of subjects” value ([2]; OLE Final Visit) was “(0.8) %” and the “CGI-I parent/caregiver, 7 = Very much worse, number of subjects” value ([2]; OLE Final Visit) was 2. The “CGI-I parent/caregiver, Improved (1, 2, 3), %” value ([2]; OLE Final Visit) was “(82.3) %”, the “CGI-I parent/caregiver, Much/very much improved (1, 2), %” value ([2]; OLE Final Visit) was “(62.5) %” and the “CGI-I parent/caregiver rating, Median” value ([2]; OLE Final Visit, n 248, 7-point scale) was 2.0. The “CGI-I parent/caregiver rating, Mean” value ([2]; OLE Final Visit, n 248, scale 1 very much improved to 7 very much worse) was 2.4, the “CGI-I investigator rating, Median” value ([2]; OLE Final Visit, n 254, 7-point scale) was 2.0 and the “CGI-I investigator rating, Mean” value ([2]; OLE Final Visit, n 254, scale 1 very much improved to 7 very much worse) was 2.3.
